Reference: ChEMBL document CHEMBL4507276 (2021)

Columns and labels:
Conditions in all cases: Compound concentration 1000.0 nM
[1] = system: Receptor-type tyrosine-protein kinase FLT3 (Homo sapiens), P36888 [D835V]
[2] = target: T1, Serine/threonine-protein kinase D2 (Homo sapiens) (UniProt Q9BZL6)
T1 sequence (whole entry): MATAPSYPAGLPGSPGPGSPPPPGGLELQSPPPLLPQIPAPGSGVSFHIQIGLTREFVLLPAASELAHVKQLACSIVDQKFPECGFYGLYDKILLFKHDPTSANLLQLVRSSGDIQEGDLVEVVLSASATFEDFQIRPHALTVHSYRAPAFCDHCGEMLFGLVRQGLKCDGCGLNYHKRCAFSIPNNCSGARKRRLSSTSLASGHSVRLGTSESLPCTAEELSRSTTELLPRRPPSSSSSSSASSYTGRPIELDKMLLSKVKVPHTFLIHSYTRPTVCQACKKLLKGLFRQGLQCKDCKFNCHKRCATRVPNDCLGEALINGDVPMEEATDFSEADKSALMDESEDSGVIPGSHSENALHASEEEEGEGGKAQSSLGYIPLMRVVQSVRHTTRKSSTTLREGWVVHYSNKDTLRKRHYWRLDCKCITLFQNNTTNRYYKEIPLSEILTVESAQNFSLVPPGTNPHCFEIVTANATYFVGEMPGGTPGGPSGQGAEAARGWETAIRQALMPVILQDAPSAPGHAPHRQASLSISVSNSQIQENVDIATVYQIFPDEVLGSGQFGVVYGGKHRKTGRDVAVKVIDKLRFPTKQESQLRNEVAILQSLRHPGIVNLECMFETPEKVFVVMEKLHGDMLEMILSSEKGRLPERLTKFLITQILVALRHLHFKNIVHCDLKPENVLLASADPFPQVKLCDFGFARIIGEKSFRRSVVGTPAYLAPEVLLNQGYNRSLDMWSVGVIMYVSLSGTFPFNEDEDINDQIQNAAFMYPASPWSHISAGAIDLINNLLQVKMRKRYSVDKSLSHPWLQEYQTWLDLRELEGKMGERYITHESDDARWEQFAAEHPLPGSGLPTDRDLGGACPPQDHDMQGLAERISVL

[3] = target: Phosphatidylinositol 3-kinase C2 domain-containing subunit gamma (Homo sapiens) (UniProt O75747)
[4] = target: T2, Rhodopsin kinase GRK7 (Homo sapiens) (UniProt Q8WTQ7)
T2 sequence (whole entry): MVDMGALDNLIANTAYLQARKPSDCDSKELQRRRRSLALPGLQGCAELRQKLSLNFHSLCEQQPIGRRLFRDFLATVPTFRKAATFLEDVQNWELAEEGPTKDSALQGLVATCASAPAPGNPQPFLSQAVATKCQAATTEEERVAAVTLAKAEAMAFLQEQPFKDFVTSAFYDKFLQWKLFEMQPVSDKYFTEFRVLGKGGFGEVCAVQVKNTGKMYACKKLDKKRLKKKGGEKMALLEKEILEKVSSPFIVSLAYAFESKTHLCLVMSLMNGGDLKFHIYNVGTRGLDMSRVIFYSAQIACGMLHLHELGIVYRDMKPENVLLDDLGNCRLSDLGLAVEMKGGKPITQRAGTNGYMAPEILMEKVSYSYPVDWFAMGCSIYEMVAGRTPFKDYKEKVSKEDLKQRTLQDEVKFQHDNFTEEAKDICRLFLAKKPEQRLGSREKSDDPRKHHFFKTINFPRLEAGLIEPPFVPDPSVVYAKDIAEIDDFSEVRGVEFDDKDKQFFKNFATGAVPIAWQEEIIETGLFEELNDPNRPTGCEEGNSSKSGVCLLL

[5] = target: Phosphatidylinositol 4-phosphate 5-kinase type-1 gamma (Homo sapiens) (UniProt O60331)
[6] = target: Microtubule-associated serine/threonine-protein kinase 1 (Homo sapiens) (UniProt Q9Y2H9)
[7] = target: Epithelial discoidin domain-containing receptor 1 (Homo sapiens) (UniProt Q08345)
[8] = system: Phosphatidylinositol 4,5-bisphosphate 3-kinase catalytic subunit alpha isoform (Homo sapiens), P42336 [I800L]
[9] = target: Protein kinase C delta type (Homo sapiens) (UniProt Q05655)
[10] = target: Cyclin-dependent kinase 4 (Homo sapiens) (UniProt P11802)
[11] = target: High affinity nerve growth factor receptor (Homo sapiens) (UniProt P04629)
[12] = target: Macrophage-stimulating protein receptor (Homo sapiens) (UniProt Q04912)
[13] = target: Tyrosine-protein kinase Lyn (Homo sapiens) (UniProt P07948)
[14] = target: Cyclin-dependent kinase 15 (Homo sapiens) (UniProt Q96Q40)
[15] = target: Serine/threonine-protein kinase PknB (Mycobacterium tuberculosis) (UniProt P9WI81)
[16] = target: Angiopoietin-1 receptor (Homo sapiens) (UniProt Q02763)
[17] = target: Serine/threonine-protein kinase 32A (Homo sapiens) (UniProt Q8WU08)
[18] = target: Serine/threonine-protein kinase SBK1 (Homo sapiens) (UniProt Q52WX2)
[19] = target: Mitogen-activated protein kinase 10 (Homo sapiens) (UniProt P53779)
Sequence of Mitogen-activated protein kinase 10 (Homo sapiens) (P53779 whole entry): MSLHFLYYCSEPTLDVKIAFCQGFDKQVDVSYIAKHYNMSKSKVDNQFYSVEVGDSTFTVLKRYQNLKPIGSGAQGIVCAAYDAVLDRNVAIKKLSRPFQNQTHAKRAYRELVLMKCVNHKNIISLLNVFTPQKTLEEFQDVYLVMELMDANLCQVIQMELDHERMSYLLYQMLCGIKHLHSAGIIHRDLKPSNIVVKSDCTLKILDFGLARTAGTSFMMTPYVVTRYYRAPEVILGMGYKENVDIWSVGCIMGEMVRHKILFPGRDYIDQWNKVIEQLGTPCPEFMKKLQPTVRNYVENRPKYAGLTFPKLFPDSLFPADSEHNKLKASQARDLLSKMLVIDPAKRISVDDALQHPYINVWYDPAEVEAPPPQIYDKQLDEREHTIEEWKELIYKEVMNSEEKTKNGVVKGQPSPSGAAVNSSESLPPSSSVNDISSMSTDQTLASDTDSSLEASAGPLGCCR

Sequence of Angiopoietin-1 receptor (Homo sapiens) (Q02763 whole entry): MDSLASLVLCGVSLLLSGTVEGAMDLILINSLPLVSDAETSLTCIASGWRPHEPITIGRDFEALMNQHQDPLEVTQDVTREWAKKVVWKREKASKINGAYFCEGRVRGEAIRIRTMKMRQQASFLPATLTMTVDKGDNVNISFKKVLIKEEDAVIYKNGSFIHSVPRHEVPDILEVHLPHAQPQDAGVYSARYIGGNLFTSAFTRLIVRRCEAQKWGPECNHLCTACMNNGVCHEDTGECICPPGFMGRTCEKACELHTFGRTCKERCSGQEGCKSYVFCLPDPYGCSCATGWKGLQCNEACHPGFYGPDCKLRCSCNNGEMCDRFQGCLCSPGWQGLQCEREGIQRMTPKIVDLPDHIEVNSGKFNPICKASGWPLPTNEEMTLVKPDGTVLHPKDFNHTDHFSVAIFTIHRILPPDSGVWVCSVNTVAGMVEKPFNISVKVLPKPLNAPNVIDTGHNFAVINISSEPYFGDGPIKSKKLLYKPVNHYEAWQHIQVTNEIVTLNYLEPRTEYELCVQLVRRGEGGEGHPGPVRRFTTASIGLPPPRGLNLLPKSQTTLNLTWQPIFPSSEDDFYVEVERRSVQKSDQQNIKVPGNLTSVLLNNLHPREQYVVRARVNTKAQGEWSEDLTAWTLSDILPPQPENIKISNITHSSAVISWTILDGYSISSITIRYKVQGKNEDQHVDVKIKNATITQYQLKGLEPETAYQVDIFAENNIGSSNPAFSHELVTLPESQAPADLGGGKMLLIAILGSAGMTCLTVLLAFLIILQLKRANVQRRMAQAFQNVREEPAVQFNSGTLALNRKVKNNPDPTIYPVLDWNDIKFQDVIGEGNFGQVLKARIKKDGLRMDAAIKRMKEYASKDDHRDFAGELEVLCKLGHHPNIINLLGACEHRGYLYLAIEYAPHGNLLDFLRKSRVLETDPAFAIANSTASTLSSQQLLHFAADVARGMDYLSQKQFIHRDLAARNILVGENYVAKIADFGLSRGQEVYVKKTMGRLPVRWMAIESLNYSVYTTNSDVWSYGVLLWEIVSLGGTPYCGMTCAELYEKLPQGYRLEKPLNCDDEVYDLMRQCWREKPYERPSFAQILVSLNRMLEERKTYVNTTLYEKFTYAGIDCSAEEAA
Sequence of Serine/threonine-protein kinase PknB (Mycobacterium tuberculosis) (P9WI81 whole entry): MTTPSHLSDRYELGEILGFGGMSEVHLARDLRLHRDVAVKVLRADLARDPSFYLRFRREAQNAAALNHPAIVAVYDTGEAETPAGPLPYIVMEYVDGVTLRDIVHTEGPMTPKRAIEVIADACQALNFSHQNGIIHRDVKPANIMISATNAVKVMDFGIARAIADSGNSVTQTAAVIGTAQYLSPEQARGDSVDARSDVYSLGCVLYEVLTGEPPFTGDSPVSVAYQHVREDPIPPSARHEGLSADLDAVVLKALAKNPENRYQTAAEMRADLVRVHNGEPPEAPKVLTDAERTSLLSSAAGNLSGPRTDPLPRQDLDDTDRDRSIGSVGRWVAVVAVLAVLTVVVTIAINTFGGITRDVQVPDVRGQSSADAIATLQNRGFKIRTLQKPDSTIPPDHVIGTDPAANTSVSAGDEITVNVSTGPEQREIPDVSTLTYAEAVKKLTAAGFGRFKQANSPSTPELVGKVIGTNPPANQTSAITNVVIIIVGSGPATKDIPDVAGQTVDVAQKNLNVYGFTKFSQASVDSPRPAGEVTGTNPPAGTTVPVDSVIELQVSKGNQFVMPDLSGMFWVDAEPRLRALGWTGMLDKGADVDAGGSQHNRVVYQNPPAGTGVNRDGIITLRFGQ
Sequence of Epithelial discoidin domain-containing receptor 1 (Homo sapiens) (Q08345 whole entry, the tested form may be a part, canonical isoform): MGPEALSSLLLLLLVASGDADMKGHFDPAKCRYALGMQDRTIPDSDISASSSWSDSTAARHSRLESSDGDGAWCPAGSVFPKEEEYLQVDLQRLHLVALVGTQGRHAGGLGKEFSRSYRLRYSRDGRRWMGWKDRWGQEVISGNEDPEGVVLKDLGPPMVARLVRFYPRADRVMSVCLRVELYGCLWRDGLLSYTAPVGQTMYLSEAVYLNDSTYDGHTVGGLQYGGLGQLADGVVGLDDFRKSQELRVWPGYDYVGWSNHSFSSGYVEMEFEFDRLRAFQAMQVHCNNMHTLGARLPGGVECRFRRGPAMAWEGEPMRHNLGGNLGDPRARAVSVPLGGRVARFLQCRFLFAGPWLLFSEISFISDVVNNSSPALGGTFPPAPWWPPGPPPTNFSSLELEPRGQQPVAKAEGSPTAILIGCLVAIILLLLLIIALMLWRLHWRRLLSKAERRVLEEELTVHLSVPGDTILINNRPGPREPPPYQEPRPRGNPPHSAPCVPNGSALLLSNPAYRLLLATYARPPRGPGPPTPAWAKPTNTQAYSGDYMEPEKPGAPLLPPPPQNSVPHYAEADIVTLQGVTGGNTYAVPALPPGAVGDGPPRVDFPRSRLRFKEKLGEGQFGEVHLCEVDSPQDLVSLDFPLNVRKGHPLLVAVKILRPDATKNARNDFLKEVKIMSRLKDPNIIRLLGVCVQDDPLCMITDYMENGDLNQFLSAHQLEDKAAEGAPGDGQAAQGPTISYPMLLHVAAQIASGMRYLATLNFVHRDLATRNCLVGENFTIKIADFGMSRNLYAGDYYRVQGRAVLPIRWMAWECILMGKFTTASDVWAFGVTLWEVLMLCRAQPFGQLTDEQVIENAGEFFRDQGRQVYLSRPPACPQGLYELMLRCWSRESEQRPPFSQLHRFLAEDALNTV
Sequence of High affinity nerve growth factor receptor (Homo sapiens) (P04629 33-796 limits assumed): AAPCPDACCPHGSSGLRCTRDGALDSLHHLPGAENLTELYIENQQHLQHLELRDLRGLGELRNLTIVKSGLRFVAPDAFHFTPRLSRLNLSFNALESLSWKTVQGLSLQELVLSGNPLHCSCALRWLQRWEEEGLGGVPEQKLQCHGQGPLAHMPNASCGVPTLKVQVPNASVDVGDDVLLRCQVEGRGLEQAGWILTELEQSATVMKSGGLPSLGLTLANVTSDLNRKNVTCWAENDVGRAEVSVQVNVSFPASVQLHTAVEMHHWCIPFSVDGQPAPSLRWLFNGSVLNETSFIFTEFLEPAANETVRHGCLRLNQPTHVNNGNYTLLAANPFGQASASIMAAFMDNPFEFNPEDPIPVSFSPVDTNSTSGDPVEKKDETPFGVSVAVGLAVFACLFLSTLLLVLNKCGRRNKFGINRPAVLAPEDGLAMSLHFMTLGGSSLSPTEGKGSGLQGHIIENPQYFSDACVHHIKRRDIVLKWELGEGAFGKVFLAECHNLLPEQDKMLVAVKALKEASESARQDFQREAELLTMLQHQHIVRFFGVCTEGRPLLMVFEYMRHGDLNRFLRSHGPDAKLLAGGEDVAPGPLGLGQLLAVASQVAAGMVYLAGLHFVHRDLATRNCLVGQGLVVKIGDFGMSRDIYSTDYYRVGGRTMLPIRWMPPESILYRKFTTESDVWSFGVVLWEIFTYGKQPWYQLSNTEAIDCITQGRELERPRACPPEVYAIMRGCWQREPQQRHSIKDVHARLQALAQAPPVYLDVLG
Sequence of Phosphatidylinositol 4,5-bisphosphate 3-kinase catalytic subunit alpha isoform (Homo sapiens), P42336 [I800L] (P42336 whole entry I800L, canonical isoform): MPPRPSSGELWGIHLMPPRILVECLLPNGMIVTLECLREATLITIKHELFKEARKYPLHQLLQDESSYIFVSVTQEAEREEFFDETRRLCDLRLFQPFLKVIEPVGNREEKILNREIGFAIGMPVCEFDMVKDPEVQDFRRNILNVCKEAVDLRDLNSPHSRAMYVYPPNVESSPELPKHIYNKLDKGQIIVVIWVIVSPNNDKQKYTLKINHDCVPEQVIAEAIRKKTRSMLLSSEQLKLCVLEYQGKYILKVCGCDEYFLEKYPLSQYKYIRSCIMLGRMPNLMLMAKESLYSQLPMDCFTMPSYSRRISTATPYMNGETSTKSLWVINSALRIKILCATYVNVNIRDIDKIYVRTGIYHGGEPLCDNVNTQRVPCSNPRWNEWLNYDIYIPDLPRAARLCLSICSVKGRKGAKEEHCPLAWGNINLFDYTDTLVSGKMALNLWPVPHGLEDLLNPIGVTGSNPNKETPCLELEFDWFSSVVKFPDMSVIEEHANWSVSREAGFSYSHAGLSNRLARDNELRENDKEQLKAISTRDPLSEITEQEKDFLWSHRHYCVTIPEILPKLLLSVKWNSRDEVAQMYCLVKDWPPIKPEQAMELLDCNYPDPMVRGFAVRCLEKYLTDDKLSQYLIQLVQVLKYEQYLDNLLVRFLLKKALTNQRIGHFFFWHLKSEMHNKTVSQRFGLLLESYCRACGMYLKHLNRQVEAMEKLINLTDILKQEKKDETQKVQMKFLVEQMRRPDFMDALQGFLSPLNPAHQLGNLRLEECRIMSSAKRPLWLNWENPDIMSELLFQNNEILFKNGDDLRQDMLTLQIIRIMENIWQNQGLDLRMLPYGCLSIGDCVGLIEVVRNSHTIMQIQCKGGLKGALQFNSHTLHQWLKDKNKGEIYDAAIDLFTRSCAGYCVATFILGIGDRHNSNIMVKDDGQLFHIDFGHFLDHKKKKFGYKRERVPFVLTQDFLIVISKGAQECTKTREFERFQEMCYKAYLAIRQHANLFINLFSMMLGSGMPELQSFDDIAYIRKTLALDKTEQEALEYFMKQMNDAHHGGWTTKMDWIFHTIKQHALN

SMILES | residual activity [1] | residual activity [2] | residual activity [3] | residual activity [4] | residual activity [5] | residual activity [6] | residual activity [7] | residual activity [8] | residual activity [9] | residual activity [10] | residual activity [11] | residual activity [12] | residual activity [13] | residual activity [14] | residual activity [15] | residual activity [16] | residual activity [17] | residual activity [18] | residual activity [19]
CN(C)C(=O)Cn1cc(-c2nc(C3(c4ccc(-c5cnc(N)nc5)cc4)CC3)no2)cn1 [BI 0153] | 49% | 89% | 76% | 84% | 96% | 100% | 86% | 91% | 67% | 100% | 100% | 95% | 79% | 100% | 85% | 88% | 97% | 83% | 93%
CN(C)C(=O)Cn1cc(-c2nc([C@@](C)(c3ccc(-c4cnc(N)nc4)cc3)C3CC3)no2)cn1 [BI 665915] | 72% | 100% | 66% | 0% | 100% | 97% | 90% | 54% | 98% | 94% | 70% | 79% | 87% | 94% | 100% | 100% | 83% | 87% | 94%
